According to publication PMC5719086, “Effective in vivo gene delivery with reduced toxicity, achieved by charge and fatty acid -modified cell penetrating peptide” (Scientific Reports, 2017):
Like-named read-outs stand apart in the source and are kept apart here. Square brackets hold non-standard residues; d marks the D form. Peptide text beside a SMILES is read from it. * marks the point of attachment. Stearoyl = CCCCCCCCCCCCCCCCCC(=O)*; Orn = NCCC[C@H](N)C(=O)O

Assays:
mouse RBC = assay: Hemolysis assay (activity towards cell membranes); type: cell-based; details: 1 h 37 °C, triplicates
Protocol: The ability of the peptides to lyse the red blood cells (RBC) in PBS was used as a measure of membrane activity. To obtain fresh mouse RBC, blood was collected from the saphenous vein using sodium-heparinized (80 iu/ml ± 30%) blood collection capillaries (Marienfeld, Germany) and transferred to heparinized blood collecting tubes (Sarstedt, Germany). To isolate RBCs, the whole blood was centrifuged for 15 minutes at 300 × g, followed by removal of the plasma. The RBCs were then washed three times with 1 × PBS (RBC pelleting with 15 minutes at 300 × g). The resulting RBCs were then resuspended in PBS at 4% (v/v).
For the analysis, 200 μl of RBC suspension was added to 200 μl of peptide solution or peptide/pDNA complexes in 5% glucose (final RBC concentration 2%) and gently vortexed. The peptide/pDNA complexes were prepared using a fixed 1 μg of pDNA and varying amount of the peptide. Following this, samples were incubated for 1 hour at 37 °C with gentle stirring. After incubation, the RBCs were pelleted (15 minutes at 300 × g) and the amount of hemoglobin in the supernatant was assessed by measuring the absorbance at 540 nm using a 96-well microplate reader. The experiments were conducted in triplicates.
100% of hemolysis was defined as the RBCs treated with 0.1% Triton-X100 in PBS and 0% was obtained with cells incubated in 5% glucose solution. % of hemolysis was calculated by the formula: % Hemolysis = [(Asample − Aglucose)/Atriton − Aglucose)] × 100.

proteinase K [1] = target: T1, proteinase K (Parengyodontium album, UniProt P06873); assay: Proteinase K treatment of CPP/pDNA complexes; type: in vitro ADME; details: 26 °C
T1 construct: purchased Thermo Scientific
T1 sequence (P06873 106-384): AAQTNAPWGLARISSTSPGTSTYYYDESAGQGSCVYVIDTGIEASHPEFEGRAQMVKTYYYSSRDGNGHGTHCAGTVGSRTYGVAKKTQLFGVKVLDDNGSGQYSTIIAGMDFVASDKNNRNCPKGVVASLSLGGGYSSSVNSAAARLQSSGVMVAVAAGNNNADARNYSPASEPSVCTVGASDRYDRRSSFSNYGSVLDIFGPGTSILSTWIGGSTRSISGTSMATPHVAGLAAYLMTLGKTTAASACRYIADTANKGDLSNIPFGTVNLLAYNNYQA
Protocol: For the proteinase K treatment, 30 μl of pre-formed CPP/pDNA complex solution (0.3, 0.2, 0.1 and 0.05 µg of pDNA per sample) or CPP in MQ was transferred to a black 96-well plate and 90 µl of MQ was added. After a short period of mixing, fluorescent DNA intercalating dye dilution was added (Quant-iT™ PicoGreen®, ThermoFisher Scientific) and incubated for 5 minutes at room temperature. The fluorescence was measured (Synergy MX, BioTek; λex 492 and λem 535) to quantify the initial accessibility of pDNA. Thereafter 10 μl of Proteinase K (Thermo Scientific) was added with the final enzyme concentration ~2.4 U per well. Fluorescence was measured over an indicated period at 26 °C. The readings were normalized against the fluorescence of free pDNA.

proteinase K [2] = target: T1, proteinase K; type: in vitro ADME
CHO cells = assay: Plasmid delivery (luciferase) assay in cell culture; type: cell-based; details: 24-well plate
Protocol: If not indicated otherwise, complexes were formed using 0.5 μg of pDNA (pGL3, Promega, Sweden) mixed with a peptide at indicated charge ratio (N/P, nitrogen-to-phosphate ratio) in MQ water in a final volume of 50 μl. N/P was calculated theoretically and accounted for both the positive charges of the peptide (Table 1) and negative charges of the pDNA. Thereafter, complexes were incubated for 40 minutes at room temperature prior to each experiment.
For the plasmid delivery assay, 4 × 10^4 CHO cells were seeded 24 hours prior to each experiment in 24-well plates. Cells were treated with CPP/pDNA complexes at indicated N/P for 4 h in serum containing media, followed by the addition of 1 ml 10% serum-containing medium and incubated for another 20 hours. Thereafter, cells were washed with 1x PBS and lysed using 100 µl 0.1% Triton X-100 in PBS for 15 min at 4 °C. Luciferase activity was measured using Promega’s luciferase assay system according to the manufacturer’s protocol using a GLOMAX™ 96 microplate luminometer (Promega, Sweden) and normalized to the protein content (BioRad Protein Assay, USA).

BALB/c mice = assay: Side effects / lethality after i.v. injection of complexes; type: in vivo, mouse; details: PF14/pDNA at N/P2, i.v., all experiments
Protocol: For in vivo studies, 20–50 µg of p-CMV-Luc2 (marked as pLuc in the text) per animal was mixed with a peptide at indicated N/P in MQ in a final volume of 100 µl. After 40 minutes of incubation, glucose was added to a final 5% glucose in 200 μl and immediately injected intravenously via the tail vein.
Reporter gene expression levels were evaluated post mortem 24 h after injecting the complexes into the tail vein, using male and female BALB/c mice (8-week-old). Each animal received a single 200 μl i.v. injection of the complexes. The mice were sacrificed using cervical dislocation and tissues were harvested and snap-frozen on dry ice. The whole tissues were homogenized using a Precellys®24-Dual homogenization system (Bertin Technologies, France) and lysed using 1 × Promega lysis buffer (Promega, Sweden). The content of luciferase was analyzed as described previously. Briefly, homogenized tissues were thawed and 500 µl of Promega Reporter lysis 1 × buffer was added. The samples were subsequently vortexed for 15 minutes, subjected to three consecutive freeze-thaw cycles (liquid nitrogen and 37 °C water bath), centrifuged for three minutes at 10,000 x g, 4 °C; the supernatant was removed and saved for later analysis. […] Luciferase was measured with Promega luciferase assay system, in combination with GLOMAX 96 microplate luminometer (Promega, Sweden). […]

lungs = details: Cy5-labelled pDNA, i.v., 1 h post-injection, confocal microscopy of cryosections
Protocol: The physical accumulation of the complexes were assessed by using Cy5-labeled pDNA (Mirus, USA). Equal amounts of labelled pDNA were administered, regardless of the N/P ratio of the complexes (e.g. N/P4 included 20 μg of labelled pDNA, whereas in case of N/P2, 20 μg of labelled pDNA was mixed with 30 μg of unlabeled pDNA). For the histological evaluation, the lungs were inflated postmortem with 1:1 cryomatrix:PBS (O.C.T embedding matrix, Kaltek, Italy), frozen in 2-methylbutane bath on dry ice. Fresh cryo-sections (10 μm thick) were fixed with ice cold methanol, counterstained with DAPI (AppliChem) and imaged with confocal microscopy (Zeiss LSM710).

[3] = Complex stability in FBS, gel shift assay; details: 50% FBS, 37 °C, 48 h, serum and/or triton + heparin dissociation
Protocol: Then the samples were mixed with the DNA loading dye and electrophoresed exactly as stated above in the Gel shift assay description, using 0.1 µg of pDNA per lane. ZipRuler Express DNA Ladder 2 (ThermoFisher Scientific) was added to each gel.
The stability of the complexes after incubation in FBS, visualized by gel shift assay.

CCCCCCCCCCCCCCCCCC(=O)N[C@@H](C)C(=O)NCC(=O)N[C@@H](Cc1ccc(O)cc1)C(=O)N[C@@H](CC(C)C)C(=O)N[C@@H](CC(C)C)C(=O)NCC(=O)N[C@@H](CCCCN)C(=O)N[C@@H](CC(C)C)C(=O)N[C@@H](CC(C)C)C(=O)N[C@@H](CCCN)C(=O)N[C@@H](CCCN)C(=O)N[C@@H](CC(C)C)C(=O)N[C@@H](C)C(=O)N[C@@H](C)C(=O)N[C@@H](C)C(=O)N[C@@H](C)C(=O)N[C@@H](CC(C)C)C(=O)N[C@@H](CCCN)C(=O)N[C@@H](CCCN)C(=O)N[C@@H](CC(C)C)C(=O)N[C@@H](CC(C)C)C(N)=O [PF14] (Stearoyl-AGYLLGKLL[Orn][Orn]LAAAAL[Orn][Orn]LL-NH2)
EC50 (mouse RBC; naked peptide in 5% glucose, mouse RBC 2% final in PBS, hemoglobin absorbance 540 nm, 100% = 0.1% Triton X-100, read-out: EC50 (μM) of CPP (membrane activity, concentration required to lyse 50% of the cells)): 0.66 µM | EC50 (mouse RBC; peptide/pDNA complexes, fixed 1 μg pDNA and varying peptide, mouse RBC 2% final, absorbance 540 nm, read-out: EC50 (μM) of CPP/pDNA (membrane activity)): 1.43 µM | stability of the complexes against proteinase K (in words) (proteinase K [1]; CPP/pDNA complexes at N/P2, accessible pDNA over time by intercalating dye): less stable particles where DNA was liberated into the solution | Proteinase K: t1/2 (min) of the complexed pDNA (95%CI) (proteinase K [1]; CPP/pDNA complexes at N/P2 in MQ, proteinase K ~2.4 U per well, accessible pDNA by PicoGreen fluorescence, normalized to free pDNA): 108.3 (101.9 ± 118.4) min | degradation of naked peptide by proteinase K (in words) (proteinase K [2]): easily degraded | usable pDNA dose before toxicity, N/P2 (CHO cells; PF14/pDNA N/P2, CHO cells): up to 2 μg | pDNA dose giving maximum transfection before toxicity, N/P4 (CHO cells; PF14/pDNA N/P4, CHO cells): 0.5 μg | usable pDNA dose before toxicity, N/P6 (CHO cells; PF14/pDNA N/P6, CHO cells): 0.125 μg | lethality / side effects, N/P2 (BALB/c mice): zero lethality | accumulation of complexes in lungs, N/P2 (in words) (lungs): significantly lower signal | accumulation of complexes in lungs, N/P4 (in words) (lungs): considerable amount of the fluorescence was observed in lungs | pDNA migration from complexes after 48 h in serum (in words) [3]: migration of pDNA from some of the complexes could be observed
